Results taken from PubChem BioAssay AID489035 (Sanford-Burnham Center for Chemical Genomics, 2010).
Active and inactive are the calls of the source. How the calls were made is not given here.

These compounds were tested on Jurkat NF-kB reporter, TCR-induced, luciferase luminescence (assay: T-cell NF-kB luciferase reporter inhibition – Jurkat cells, luminescence, dose response (AID 489035)).
`C=C1C(O)[C@@H]2O[C@]3(CC[C@H](/C=C/C(C)[C@@H]4CC(C)=CC5(O[C@H](C[C@@](C)(O)CO)CCC5O)O4)O3)CC[C@H]2O[C@@H]1C(O)CC(C)[C@H]1OC2(CCCCO2)CCC1C` (some centres not stated) showed an IC50 of 0.29 µM. `CCOc1ccc(S(=O)(=O)NCc2ccccn2)cc1NC(=O)c1ccccc1` was tested, and the IC50 was > 80 µM (inactive). `CCOC(=O)C(C)Oc1cccc2c(=O)n(CC(=O)NCc3ccccc3)ccc12` (configuration not stated) was tested, and the IC50 was > 80 µM (inactive). `CSC1=NC(C(Cl)(Cl)Cl)N=C(c2ccc(C)cc2)N1` (configuration not stated) was tested, and the IC50 was > 80 µM (inactive). For `O=C(Nc1ccccc1Cl)/C(Cl)=C(\Cl)S(=O)c1ccccc1` (configuration not stated), the IC50 was 1.77 µM. In the case of `COC(=O)Nc1ccc(S(=O)(=O)N2c3ccccc3CCC2C)cc1` (configuration not stated), the IC50 is reported as 26.6 µM (inactive). Work on `Cc1ccc2oc(/N=C(\N)NC(=O)C(C)(C)C)nc2c1` yielded an IC50 of 6.68 µM. For `Cc1c(C(=O)N/N=C/c2ccc(Cl)cc2)[nH]c2ccc(Cl)cc12`, the IC50 was > 80 µM (inactive). With `Cc1ccc2[nH]c(-c3cccc(F)c3)cc(=O)c2c1` the IC50 was > 80 µM (inactive). `CCOC(=O)C(C)Oc1cccc2c(=O)n(CC(=O)NCc3ccc4c(c3)OCO4)ccc12` (configuration not stated) was tested, and the IC50 was 9.88 µM. With `CC(=O)c1ccc(N2CCN(S(=O)(=O)c3ccc4c(c3)CC(C)N4C(=O)C3CC3)CC2)cc1` (configuration not stated) the IC50 was > 80 µM (inactive). `CC(=O)O[C@H]1C(=O)[C@@]2(C)C([C@H](OC(=O)c3ccccc3)[C@]3(O)C[C@H](OC(=O)[C@H](O)[C@@H](NC(=O)Cc4ccccc4)c4ccccc4)C(C)=C1C3(C)C)[C@]1(OC(C)=O)CO[C@@H]1C[C@@H]2O` (some centres not stated) was tested, and the IC50 was > 80 µM (inactive). For `CCC1CCCCN1C(=O)c1cc(COc2ccc3ncccc3c2)on1` (configuration not stated), the IC50 was > 80 µM (inactive). With `Cc1noc(C)c1CSc1nc2ccccc2c(=O)n1-c1ccccc1` the IC50 was 30.8 µM (inactive). `Cc1ccc(S(=O)(=O)/N=C2\C=C(Nc3ccc(O)cc3)C(=O)c3ccccc32)cc1` gave an IC50 of 0.62 µM. With `N/C(=N\OCc1ccc([N+](=O)[O-])cc1)c1ccccn1` the IC50 was 0.67 µM. For `CCOC(=O)c1[nH]c(C)c(C(=O)Nc2ccc(C)cc2C)c1C`, the IC50 was > 80 µM (inactive). `CCCC(=O)Nc1nc2ccc(S(=O)(=O)N3CCCCC3)cc2s1` was tested, and the IC50 was > 80 µM (inactive). With `Cc1ccc(C(=O)Nc2cnc3ccccc3c2)cc1` the IC50 was 0.37 µM. For `O=C(c1cn(Cc2ccccc2)nc1-c1ccccc1)N1CCN(c2ccccn2)CC1`, the IC50 was > 80 µM (inactive). With `COc1cc(C(=O)N2CCN(c3cccc(C)c3C)CC2)cc(OC)c1OC` the IC50 was > 80 µM (inactive). In the case of `CC(=O)N1c2ccc(S(=O)(=O)N3CCC(C(=O)Nc4cccc(C)n4)CC3)cc2CC1C` (configuration not stated), the IC50 is reported as > 80 µM (inactive). `COc1cc(Nc2ccc(C)cc2)c([N+](=O)[O-])nc1[N+](=O)[O-]` was tested, and the IC50 was > 80 µM (inactive). `COc1ccc(/C=N/NC(=O)c2[nH]c3ccc(Br)cc3c2-c2ccccc2)cc1` gave an IC50 of 1.64 µM. `COc1ccc(CC(=O)Nc2cccc(-c3nnc(-c4cccc(C)c4)o3)c2)cc1OC` was tested, and the IC50 was 47.6 µM (inactive). For `COc1cc(NS(=O)(=O)c2ccc(C)cc2)c2ncccc2c1`, the IC50 was 2.12 µM. With `Cc1sc2ncnc(NC3CCN(Cc4ccccc4)CC3)c2c1C` the IC50 was > 80 µM (inactive). With `Cc1cc(-c2ccc(C)c(S(=O)(=O)N3CCN(c4ccc([N+](=O)[O-])cc4)CC3)c2)on1` the IC50 was > 80 µM (inactive). With `CCOc1ccccc1NC(=O)CN(c1ccc(OC)cc1)S(=O)(=O)c1c(C)noc1C` the IC50 was > 80 µM (inactive). With `CCOC(=O)N=Nc1c2ccccc2c2nc3no[nH]c3nc12` the IC50 was 0.73 µM. `Cc1ccc(C(=O)c2cc([N+](=O)[O-])ccc2N2CCOCC2)cc1C` gave an IC50 of 19.6 µM. Work on `CCOc1ccc(S(=O)(=O)N2c3ccccc3CC2C)cc1` (configuration not stated) yielded an IC50 of 8.42 µM. `CCOc1ccccc1N1CC(O)=C(c2nc3ccccc3s2)C1=N` was tested, and the IC50 was 26.7 µM (inactive). For `CCN(CC)c1ccc(-c2nn3c(-c4n[nH]c5c4CCC5)nnc3s2)cc1`, the IC50 was 47.1 µM (inactive). For `O=C(Nc1ccncc1)C1CCCN(S(=O)(=O)c2cccc3cccnc23)C1` (configuration not stated), the IC50 was > 80 µM (inactive). With `CCOc1ccc(S(=O)(=O)NCc2ccccn2)cc1NC(=O)c1ccccc1F` the IC50 was > 80 µM (inactive). With `COc1ccc(/C=N\NC(=O)c2ccccc2F)cc1COc1ccc(F)cc1F` the IC50 was > 80 µM (inactive). For `CCOC(=O)N/N=C/c1c(C)nn(-c2cccc(C(F)(F)F)c2)c1Cl`, the IC50 was > 80 µM (inactive). In the case of `COc1cc(NS(=O)(=O)c2ccc(OC)c(C)c2C)c(OC)cc1Cl`, the IC50 is reported as > 80 µM (inactive). With `CC(=O)c1c(C)[nH]c(C(=O)OCC(=O)Nc2ccc(C)cc2[N+](=O)[O-])c1C` the IC50 was > 80 µM (inactive). In the case of `Cn1c(SC2=CS(=O)(=O)c3ccccc32)nc2ccccc21`, the IC50 is reported as 1.46 µM. In the case of `CCOc1ccc2c(c1)OC(c1ccc(OC)cc1)(C(F)(F)F)NC2=O` (configuration not stated), the IC50 is reported as > 80 µM (inactive). For `CC1=Nc2ccccc2/C1=C\c1sc(Nc2ccc(C)cc2)nc1O`, the IC50 was > 80 µM (inactive). In the case of `CCCSc1nnc(Sc2nnnn2-c2ccccc2)s1`, the IC50 is reported as 2.09 µM. Work on `CCCC(=O)Nc1nc2ccc(NC(=O)c3c(F)c(F)c(OC)c(F)c3F)cc2s1` yielded an IC50 of 11.5 µM. For `CCOc1cccc(/C=N/Nc2ccc(S(=O)(=O)N(CC)CC)cn2)c1O`, the IC50 was 21.8 µM (inactive). In the case of `COc1ccc(OC)c(Nc2cc(-c3ccccc3)nc(N)n2)c1`, the IC50 is reported as 26.9 µM (inactive). In the case of `Cc1ccc(S(=O)(=O)Nc2cccc(-c3ccc4nncn4n3)c2)cc1`, the IC50 is reported as > 80 µM (inactive). For `CCCCCCCOc1ccc(OC(=O)c2cccnc2)cc1`, the IC50 was > 80 µM (inactive). `O=S(=O)(c1cc(F)ccc1F)N1CCN(c2ncnc3ccccc23)CC1` was tested, and the IC50 was > 80 µM (inactive). `O=C1C=C(c2ccc3ncccc3c2)C[C@@H](c2ccc3c(c2)OCO3)C1` was tested, and the IC50 was > 80 µM (inactive). With `O=C(N/N=C(\c1ccccc1)c1cccnc1)c1cccc(F)c1` the IC50 was 5.3 µM. In the case of `O=c1cc(-c2ccccc2)[nH]c2ccccc12`, the IC50 is reported as > 80 µM (inactive). `C/C=C(\C)C(=O)N[C@@H](c1ccccc1)[C@@H](O)C(=O)O[C@H]1C[C@@]2(O)[C@@H](OC(=O)c3ccccc3)C3[C@](C)(C(=O)[C@H](OC(C)=O)C(=C1C)C2(C)C)[C@H](O)C[C@H]1OC[C@@]31OC(C)=O` (some centres not stated) was tested, and the IC50 was < 0.16 µM. `COc1cccc(/C=N/Nc2ncnc3c2ncn3Cc2ccccc2)c1O` was tested, and the IC50 was > 80 µM (inactive). `Cc1ccc(C(=O)c2cc([N+](=O)[O-])ccc2N2CCOCC2)c(C)c1` was tested, and the IC50 was 54.5 µM (inactive). For `COc1cc(C(=O)Nc2ccc3c(c2)CCN3C(C)=O)cc(OC)c1OC`, the IC50 was > 80 µM (inactive). For `CCOc1ccccc1C1CC(=O)Nc2cc3c(cc21)OCCO3` (configuration not stated), the IC50 was 3.96 µM. `COc1ccc(NC(=O)/C(Cl)=C(/Cl)S(=O)Cc2ccccc2)cn1` (configuration not stated) gave an IC50 of 0.26 µM. For `COc1cc2c(c(OC)c1OC)-c1ccc(OC)c(=O)cc1[C@@H](N(C)CC#CCO)CC2`, the IC50 was > 80 µM (inactive). Compound `CC(C)(C)C(=O)Nc1ccc(NC(=O)c2ccco2)nc1` has an IC50 of 0.81 µM. `COc1ccc(CS(=O)(=O)/C(Cl)=C(/Cl)C(=O)Nc2ccc(OC)nc2)cc1` gave an IC50 of 0.45 µM. `O=S(=O)(c1ccc2c(c1)OCCO2)N1CCN(c2ncnc3sccc23)CC1` was tested, and the IC50 was > 80 µM (inactive). In the case of `COc1ccc(C(=O)N(C)Cc2cnn(Cc3ccccc3)c2)cc1S(=O)(=O)N1CCOCC1`, the IC50 is reported as > 80 µM (inactive). `CC1=C([N+](=O)[O-])C(c2ccccc2)C2=C(N1)c1ccccc1C2=O` (configuration not stated) was tested, and the IC50 was 30.3 µM (inactive). Compound `O=S(=O)(Nc1cccc2ncccc12)c1cccs1` has an IC50 of 0.89 µM. For `Cc1cc2c(cc1C)C(c1ccccc1OC(C)C)CC(=O)N2` (configuration not stated), the IC50 was 7.61 µM. For `O=C(Nc1ccc(N2CCOCC2)cc1)c1ccc(Cl)c(S(=O)(=O)N2CCCCC2)c1`, the IC50 was > 80 µM (inactive). For `COc1ccc(OC)c(NS(=O)(=O)c2ccc(N3CCCC3=O)cc2)c1`, the IC50 was > 80 µM (inactive). In the case of `COc1ccc(-c2c(C#N)c(N)nc3c2CCc2ccccc2-3)cc1OC`, the IC50 is reported as 53.6 µM (inactive). For `O=C(Nc1ccc(S(=O)(=O)N2CCCC2)cc1)c1ccc(CN2CCc3ccccc3C2)cc1`, the IC50 was > 80 µM (inactive). With `Cc1ccc(S(=O)(=O)Nc2ccccc2-c2ccccc2)cc1` the IC50 was 22.6 µM (inactive). With `Clc1ccc(CSc2nncn2-c2ccc3c(c2)OCCO3)cc1` the IC50 was > 80 µM (inactive). `COc1ccc(/C=C2/C(=O)OCc3cc(OC)c(OC)cc32)cc1` was tested, and the IC50 was > 80 µM (inactive). `Cc1ccsc1/C=N/NC(=O)c1cc(-c2ccncc2)nc2ccccc12` was tested, and the IC50 was 35.1 µM (inactive). With `Cc1ccnc2c1ccc1c(C)ccnc12` the IC50 was 2.42 µM. In the case of `O=C(Cc1ccc(-c2ccccc2)cc1)NCc1ccccc1`, the IC50 is reported as < 0.16 µM. With `Cc1nc(Nc2nc3c(c(=O)[nH]2)CCC3)nc2ccccc12` the IC50 was 3.66 µM. Work on `CC1CCCN(c2ncnc3c2cnn3-c2ccc(Cl)cc2)C1` (configuration not stated) yielded an IC50 of 10.5 µM. Compound `Cc1ccc(C[n+]2c(-c3ccc(C)cc3)cc(-c3ccc(C)cc3)cc2-c2ccc(C)cc2)cc1` has an IC50 of 2.35 µM. With `CCOC(=O)c1ccc(Nc2nc(N)c3cc(OC)c(OC)cc3n2)cc1` the IC50 was > 80 µM (inactive). In the case of `C[C@]12CC[C@H](O)C[C@H]1CC[C@@H]1[C@@H]2CC[C@]2(C)[C@@H](C3=CC(=O)OC3)CC[C@]12O`, the IC50 is reported as 3.53 µM. For `CCn1c2ccccc2c2cc(Nc3cc(C)nc4ncnn34)ccc21`, the IC50 was > 80 µM (inactive). Work on `CC1(C)CC(N2CCN(C(c3ccccc3)c3ccccc3)CC2)=CC(=[N+]2CCCCC2)C1` yielded an IC50 of 15.9 µM. In the case of `COC(=O)c1ccc(Oc2cc(C)nc(SC)n2)cc1`, the IC50 is reported as > 80 µM (inactive). For `Cc1cc(C(=O)N2CC=C(c3ccccc3)CC2)c2ccccc2n1`, the IC50 was 75.7 µM (inactive). For `CCOC(=O)CC1CCCCN1C(=O)c1cc(COc2cccc3cnccc23)on1` (configuration not stated), the IC50 was 6.39 µM. `CCCN(CCC)C1=CC(=[N+]2CCCC2)CC(C)(C)C1` was tested, and the IC50 was > 80 µM (inactive). With `CC(C)CCOc1cccc(OCC(=O)Nc2ccncc2)c1` the IC50 was > 80 µM (inactive). In the case of `COc1cc(-c2noc(C)c2/C=C/c2ccc(OC(C)=O)cc2)cc(OC)c1OC`, the IC50 is reported as 31.5 µM (inactive). `CCCCN1/C(=C/c2ccc3ccccc3[n+]2CC)Sc2ccccc21` was tested, and the IC50 was > 80 µM (inactive). For `CCOC(=O)c1ccccc1NC(=O)Cn1c(-c2nonc2N)nc2ccccc21`, the IC50 was > 80 µM (inactive). `CCCc1cc(C(=O)Nc2cc(C)ccc2O)no1` was tested, and the IC50 was > 80 µM (inactive). `COc1ccc(Nc2cc(C)nc(-n3nc(C)cc3C)n2)cc1` was tested, and the IC50 was > 80 µM (inactive). `Oc1ccc2ccccc2c1/C=N/Nc1nnc(-c2ncc[nH]2)c2ccccc12` was tested, and the IC50 was > 80 µM (inactive). `CCCOc1ccccc1C1CC(=O)Nc2cc3c(cc21)OCO3` (configuration not stated) was tested, and the IC50 was > 80 µM (inactive). Work on `CCCCS(=O)(=O)/C=C\C=C/S(=O)(=O)CCCC` yielded an IC50 of 0.72 µM.
